Test results taken from patent US5434256A, “Diamine platinum complexes as antitumor agents” (priority 1994, dated 1995).

Assays:
[1] = system: L1210/DACH cells; experiment: MTT cytotoxicity, tetraplatin-resistant L1210/DACH (Example 5, Table 10); assay type: cell-based, murine; settings: 72 hr (3 days) continuous exposure
[2] = system: L1210/0 cells; experiment: MTT cytotoxicity, L1210/0 (Example 5, Table 10); assay type: cell-based, murine; settings: 72 hr (3 days) continuous exposure
[3] = system: L1210/0 cells; experiment: In vivo antitumor activity, L1210/0 (Example 6, Table 11); set-up: species or system male BDF1 mice; settings: for % T/C at optimal dose: L1210/0 i.p., drug i.p. days 1, 5, 9, median survival, optimal dose (mg/kg/inj): 12, 13, 14: 25, 15: 12.5, Cisplatin: 5; for Optimal Dose: i.p., dose levels 1.56 to 200 mg/kg tested, L1210/0, L1210/DDP and M5076
Description: (§1) Cisplatin-sensitive L1210/0 or cisplatin-resistant L1210/DDP cells (1×10^5 cells/mouse) were injected intraperitoneally in male BDF1 mice on day 0, and the drug, in an aqueous medium, administered intraperitoneally at dose levels ranging from 1.56 to 200 mg/kg on days 1, 5 and 9. The median life spans of control (C) and treated (T) animals were determined, and the percent T/C at the optimal dose calculated as an indicator of antitumor efficacy. The complexes were also evaluated against the M5076 reticulosarcoma. […]. The tumor volumes were measured periodically and efficacy at the optimal dose reported as tumor growth delay (TGD), which is defined as the time difference in days for the tumor in control and treated mice to reach a specified volume.
(§2) BDF1 mice inoculated i.p. with 10^5 L1210 Leukemia cells on day 0 wer
administered the drug on days 1, 5, and 9. […]

[4] = system: L1210/DDP cells; experiment: MTT cytotoxicity, cisplatin-resistant L1210/DDP (Example 5, Table 10); assay type: cell-based, murine; settings: 72 hr (3 days) continuous exposure
[5] = system: M5076 reticulosarcoma; experiment: In vivo antitumor activity, M5076 reticulosarcoma (Example 6, Table 11); set-up: species or system male BDF1 mice; settings: M5076 s.c.; drug i.p. days 5, 9, 13, 17; optimal dose (mg/kg/inj): 12: 25; Cisplatin: 5
Description: as §1, §2
(§3) administered the drug on days 1, 5, and 9. BDF1 mice inoculated s.c. with
(§4) 10^7 M5076 cells on day 0 received the drug on days 5, 9, 13, and 17.
(§5) % T/C = [(median survival time of treated)/(median survival time of
(§6) control)] × 100. TGD = tumor growth delay.

[6] = system: L1210/DDP cells; experiment: In vivo antitumor activity, cisplatin-resistant L1210/DDP (Example 6, Table 11); set-up: species or system male BDF1 mice; settings: L1210/DDP i.p.; drug i.p. days 1, 5, 9; median survival; optimal dose (mg/kg/inj): 12: 25; Cisplatin: 5
Description: as §1, §2, §3, §4, §5, §6

[7] = Renal and hematological toxicity, single i.p. dose (Table 8)
[8] = system: M5076 Tumor Model; experiment: In vivo antitumor activity against M5076 tumor model (Example 3, Table 4); set-up: species or system BDF1 mice; TGD (Tumor Growth Delay): unit not given beside the values; settings: for MTD (Maximum Tolerated Dose) / TGD (Tumor Growth Delay): M5076 s.c., BDF1 mice, i.p. days 7, 14, 21, 28; for TGD (Tumor Growth Delay): at optimal dose/MTD
Description: (§7) Each of the platinum complexes was evaluated in vivo against L1210/0, L1210/DDP, L1210/DACH and M5076 cells at several dose levels. […] The data at optimal doses are reproduced in Tables 4-7 along with data for the cyclobutanedicarboxylato, aquasulfato, methylmalonato and tartronato analogs (compounds 1-4 in Table 1).
BDF1 mice inoculated s.c. with 10' M5076 cells on day 0 and drug
administered i.p on days 7, 14, 21, and 28. MTD = Maximum Tolerated Dose
(mg/kg/injection), TGD = Tumor Growth Delay

[9] = system: L1210/0 cells; experiment: Modified MTT cytotoxicity assay, murine leukemia L1210/0 (Example 2, Table 3); assay type: cell-based; settings: for IC50: L1210/0, MTT, continuous exposure 5 days; for effectiveness against murine versus human cells (in words): L1210/0 versus A2780
[10] = system: A2780 cells; experiment: Modified MTT cytotoxicity assay, human ovarian A2780 (Example 2, Table 3); assay type: cell-based; settings: continuous exposure (5 days in table footnote; 7 days in text)
[11] = system: Murine Leukemia 1210/DDP; experiment: In vivo antitumor activity against murine leukemia L1210/DDP (Example 3, Table 7); set-up: species or system BDF1 mice; settings: for MTD (Maximum Tolerated Dose) / % T/C (mean survival time of treated/mean survival time of control) × 100: L1210/DDP i.p., BDF1 mice, drug i.p. days 1, 5, 9; for % T/C (mean survival time of treated/mean survival time of control) × 100: at optimal dose/MTD
Description: as §7
(§8) BDF1 mice inoculated i.p. with 10^5 L1210 Leukemia cells on day 0 and
drug administed i.p. on days 1, 5, and 9. MTD = Maximum Tolerated Dose
(§9) (mg/kg/injection), % T/C = (mean survival time of treated/mean survival
(§10) time of control) × 100. Figures in parenthesis indicated long term

[12] = system: Murine Leukemia L1210/0; experiment: In vivo antitumor activity against murine leukemia L1210/0 (Example 3, Table 5); set-up: species or system BDF1 mice; settings: for % T/C (mean survival time of treated/mean survival time of control) × 100: at optimal dose/MTD
Description: as §7
BDF1 mice inoculated i.p. with 10^5 L1210 Leukemiacells on day 0 and
(§11) drug administered i.p. on days 1, 5, and 9. MTD = Maximum Tolerated Dose
as §9
time of control) × 100. Figures in parenthesis indicate long term

[13] = system: Murine Leukemia L1210/DACH; experiment: In vivo antitumor activity against murine leukemia L1210/DACH (Example 3, Table 6); set-up: species or system BDF1 mice; settings: for MTD (Maximum Tolerated Dose) / % T/C (mean survival time of treated/mean survival time of control) × 100: L1210/DACH i.p., BDF1 mice, drug i.p. days 1, 5, 9; for % T/C (mean survival time of treated/mean survival time of control) × 100: at optimal dose/MTD
Description: as §7, §8, §11, §9, §10

[14] = L1210/0 i.p., BDF1 mice, drug i.p. days 1, 5, 9

CC(=O)[O][Pt]([Cl])([Cl])[O]C(C)=O.NC1CCCCC1N [Compound 14, (cis-1,2-DACH)PtCl2 trans(acetate)2]
IC50 [1]: 20.9 µM
IC50 [2]: 3000 nM
% T/C at optimal dose [3]: 171%
Optimal Dose [3]: 25 mg/kg/inj
IC50 [4]: 115 µM

CC(=O)[O][Pt]([Cl])([Cl])[O]C(C)=O.N[C@@H]1CCCC[C@H]1N [Compound 12, (R,R-1,2-DACH)PtCl2 trans(acetate)2]
IC50 [1]: 2.3 µM
IC50 [2]: 220 nM
TGD (tumor growth delay) at optimal dose [5]: 18.3 days
% T/C at optimal dose [3]: 276%
Optimal Dose [3]: 25 mg/kg/inj
% T/C at optimal dose [6]: 144%
IC50 [4]: 0.7 µM

CC(=O)[O][Pt]([Cl])([Cl])[O]C(C)=O.N[C@H]1CCCC[C@@H]1N [Compound 13, (S,S-1,2-DACH)PtCl2 trans-(acetate)2]
IC50 [1]: 4.2 µM
IC50 [2]: 880 nM
% T/C at optimal dose [3]: 265%
Optimal Dose [3]: 25 mg/kg/inj
IC50 [4]: 7 µM

N[C@@H]1CCCC[C@H]1N.[Cl][Pt+2]([Cl])([Cl])[Cl] [Tetraplatin, reference compound]
IC50 [1]: 5.3 µM
BUN d.5 ([7]; blood urea nitrogen, single i.p. dose (mg/kg): 1,4-DACH-Pt^II CBDCA 300, 1,4-DACH-Pt^IV Cl4 8.0, Tetraplatin 8.0, Cis-platin 12.0, Carboplatin 150, saline control 20.9): 17.2 mg %
Survivors on d.14 ([7]; single i.p. dose (mg/kg): 1,4-DACH-Pt^II CBDCA 300, 1,4-DACH-Pt^IV Cl4 8.0, Tetraplatin 8.0, Cis-platin 12.0, Carboplatin 150): 5/5
Body Wt. on d.5 ([7]; single i.p. dose (mg/kg): 1,4-DACH-Pt^II CBDCA 300, 1,4-DACH-Pt^IV Cl4 8.0, Tetraplatin 8.0, Cis-platin 12.0, Carboplatin 150, mean, S.D. less than 20%): 94 % on control
myelotoxicity / myelosuppression (in words) ([7]; single i.p. dose, leucopenia): myelosuppressive
antitumor properties against M5076 (in words) ([8]; M5076): the least active
MTD (Maximum Tolerated Dose) [8]: 3.1 mg/kg/injection
TGD (Tumor Growth Delay) [8]: 11.8
IC50 [9]: 110 nM
potency relative to cis-platin ([9]; L1210/0 and A2780 tumor lines, more potent than cis-platin): 2-3 fold
effectiveness against murine versus human cells (in words) [9]: more effective against murine than human cells
IC50 [2]: 110 nM
IC50 [10]: 200 nM
antitumor activity in vivo against L1210/DDP (in words) ([11]; L1210/DDP): active
MTD (Maximum Tolerated Dose) [11]: 3.1 mg/kg/injection
% T/C (mean survival time of treated/mean survival time of control) × 100 [11]: 143%
antitumor activity in vivo against L1210/0 (in words) ([12]; L1210/0): active
MTD (Maximum Tolerated Dose) [12, 14]: 3.1 mg/kg/injection
% T/C (mean survival time of treated/mean survival time of control) × 100 [12, 14]: 310%
long term survivors/no. tested ([12]; L1210/0 i.p., BDF1 mice, drug i.p. days 1, 5, 9, figures in parenthesis): 2/5
antitumor activity in vivo against L1210/DACH (in words) [13]: resistant to tetraplatin
MTD (Maximum Tolerated Dose) [13]: 3.1 mg/kg/injection
% T/C (mean survival time of treated/mean survival time of control) × 100 [13]: 89%
IC50 [4]: 0.44 µM

N[C@@H]1CCCC[C@H]1N.O=C([O][Pt]([Cl])([Cl])[O]C(=O)C(F)(F)F)C(F)(F)F [Compound 15, (R,R-1,2-DACH)PtCl2 trans(trifluoroacetate)2]
IC50 [1]: 1.72 µM
IC50 [2]: 100 nM
% T/C at optimal dose [3]: 241%
Optimal Dose [3]: 12.5 mg/kg/inj
IC50 [4]: 0.85 µM

N.N.[Cl][Pt][Cl] [Cis-platin, cis-diaminedichloroplatinum(II), reference compound]
IC50 [1]: 1.91 µM
MTD (Maximum Tolerated Dose) [8]: 5.0 mg/kg/injection
TGD (Tumor Growth Delay) [8]: 23.1
IC50 [9]: 230 nM
effectiveness against murine versus human cells (in words) [9]: more effective against murine than human cells
IC50 [2]: 200 nM
TGD (tumor growth delay) at optimal dose [5]: 16.0 days
% T/C at optimal dose [3]: 218%
Optimal Dose [3]: 5 mg/kg/inj
IC50 [10]: 360 nM
MTD (Maximum Tolerated Dose) [11]: 5.0 mg/kg/injection
% T/C (mean survival time of treated/mean survival time of control) × 100 [11]: 100%
MTD (Maximum Tolerated Dose) [12, 14]: 5.0 mg/kg/injection
% T/C (mean survival time of treated/mean survival time of control) × 100 [12, 14]: 218%
% T/C at optimal dose [6]: 110%
antitumor activity in vivo against L1210/DACH (in words) [13]: minimally sensitive to cis-platin
MTD (Maximum Tolerated Dose) [13]: 5.0 mg/kg/injection
% T/C (mean survival time of treated/mean survival time of control) × 100 [13]: 127%
IC50 [4]: 32.8 µM
